# Measurements published in paper PMC10979160 (Heliyon, 2024).
# Structures can show the parent of a compound that is named as a salt. Where two headings read alike, the source gives them in different places. Where a SMILES comes first, the peptide text is derived from it. [ ]: non-standard residue; d: D form.
# Tests used:
# [1] = test system: E. coli ATCC 25922; experiment: Checkerboard dilution assay for synergy between CAMPs and antibiotics; format: cell-based
# [2] = test system: E. coli ATCC 25922; experiment: MIC test for dividing and non-dividing bacterial cultures; format: cell-based; conditions: Escherichia coli, ATCC25922, 1 h
# [3] = peptide + ampicillin, 5 × 10^3 CFU/mL
# [4] = peptide + ampicillin, 5 × 10^5 CFU/mL
# [5] = peptide + gentamicin, 5 × 10^3 CFU/mL
# [6] = peptide + gentamicin, 5 × 10^5 CFU/mL
# [7] = peptide + levofloxacin, 5 × 10^3 CFU/mL
# [8] = peptide + levofloxacin, 5 × 10^5 CFU/mL
# [9] = read-out: MIC, dividing cells (LB)
# [10] = read-out: MIC, non-dividing cells (PBS)
SMILES,"FICI [1, 3]","FICI [1, 4]","FICI [1, 5]","FICI [1, 6]","FICI [1, 7]","FICI [1, 8]","MIC [2, 9]","MIC [2, 10]"
CC[C@H](C)[C@H](NC(=O)[C@H](Cc1c[nH]c2ccccc12)NC(=O)[C@@H](N)CCCNC(=N)N)C(=O)N[C@@H](CCCNC(=N)N)C(=O)N[C@@H](Cc1c[nH]c2ccccc12)C(=O)N[C@H](C(=O)N[C@@H](Cc1c[nH]c2ccccc12)C(=O)N[C@@H](CCCNC(=N)N)C(=O)N[C@@H](CCCCN)C(=O)N[C@@H](CCCCN)C(=O)N[C@@H](CC(C)C)C(=O)N[C@@H](CCCNC(=N)N)C(N)=O)C(C)C [24L] (H-RWIRWVWRKKLR-NH2),0.625,0.5,1,0.5,0.75,0.5,–,–
CC[C@H](C)[C@H](NC(=O)[C@H](CCCNC(=N)N)NC(=O)[C@H](CCCCN)NC(=O)[C@H](CC(C)C)NC(=O)[C@H](Cc1ccccc1)NC(=O)[C@H](CCCNC(=N)N)NC(=O)[C@H](C)NC(=O)[C@@H](N)C(C)C)C(=O)N[C@H](C(=O)N[C@@H](CCCCN)C(=O)N[C@@H](C)C(=O)N[C@@H](CC(C)C)C(=O)N[C@@H](Cc1ccccc1)C(N)=O)[C@@H](C)CC [LCAPL8] (H-VARFLKRIIKALF-NH2),1.016,1.031,1.031,0.531,1.25,0.625,–,–
"CNC(C)C1CCC(N)C(OC2C(N)CC(N)C(OC3OCC(C)(O)C(NC)C3O)C2O)O1 (stereo not shown) [Gentamicin, gentamicin]",–,–,–,–,–,–,50 µg/mL,25 µg/mL
CC[C@H](C)[C@H](NC(=O)[C@H](C)N)C(=O)N[C@@H](CCCCN)C(=O)N[C@H](C(=O)N[C@@H](CCCNC(=N)N)C(=O)N[C@@H](CCCCN)C(=O)N[C@@H](CC(C)C)C(=O)N[C@@H](Cc1ccccc1)C(=O)N[C@@H](CCCCN)C(=O)N[C@@H](CCCCN)C(=O)N[C@@H](CC(C)C)C(=O)N[C@@H](CC(C)C)C(=O)N[C@@H](CCCNC(=N)N)C(N)=O)[C@@H](C)CC [L1L] (H-AIKIRKLFKKLLR-NH2),0.563,0.5,0.75,0.5,0.625,0.5,–,–
CC(C)C[C@@H](N)C(=O)N[C@@H](C(=O)N[C@H](Cc1c[nH]c2ccccc12)C(=O)N[C@H](CCCCN)C(=O)N[C@H](CC(C)C)C(=O)N[C@H](Cc1c[nH]c2ccccc12)C(=O)N[C@H](Cc1c[nH]c2ccccc12)C(=O)N[C@H](CCCNC(=N)N)C(=O)N[C@H](CC(C)C)C(=O)N[C@H](CCCNC(=N)N)C(=O)N[C@H](Cc1c[nH]c2ccccc12)C(=O)N[C@H](CC(C)C)C(=O)N[C@H](CCCCN)C(N)=O)C(C)C [ST1D] (H-[dL][dV][dW][dK][dL][dW][dW][dR][dL][dR][dW][dL][dK]-NH2),0.625,0.625,0.516,0.625,1,1.031,–,–
CC[C@H](C)[C@H](NC(=O)CN)C(=O)N[C@@H](CCCCN)C(=O)N[C@H](C(=O)N[C@@H](CCCNC(=N)N)C(=O)N[C@@H](CCCCN)C(=O)N[C@@H](CC(C)C)C(=O)N[C@@H](Cc1ccccc1)C(=O)N[C@@H](CCCCN)C(=O)N[C@@H](CCCCN)C(=O)N[C@@H](CC(C)C)C(=O)N[C@@H](CC(C)C)C(=O)N[C@@H](CCCNC(=N)N)C(N)=O)[C@@H](C)CC [LCAPL2] (H-GIKIRKLFKKLLR-NH2),0.5,0.75,0.625,0.375,0.531,0.625,–,–
CC(C)C[C@H](NC(=O)[C@H](Cc1c[nH]c2ccccc12)NC(=O)[C@H](CCCNC(=N)N)NC(=O)[C@H](CC(C)C)NC(=O)[C@H](CCCNC(=N)N)NC(=O)[C@H](Cc1c[nH]c2ccccc12)NC(=O)[C@H](Cc1c[nH]c2ccccc12)NC(=O)[C@H](CC(C)C)NC(=O)[C@H](CCCCN)NC(=O)[C@H](Cc1c[nH]c2ccccc12)NC(=O)[C@@H](NC(=O)[C@@H](N)CC(C)C)C(C)C)C(=O)N[C@@H](CCCCN)C(N)=O [ST1L] (H-LVWKLWWRLRWLK-NH2),0.375,0.625,1,0.516,0.625,0.75,–,–
CC[C@H](C)[C@H](NC(=O)[C@H](Cc1ccccc1)NC(=O)CN)C(=O)N[C@@H](CCCCN)C(=O)N[C@H](C(=O)N[C@H](C(=O)N[C@@H](CCCNC(=N)N)C(=O)N[C@@H](CCCCN)C(=O)N[C@@H](CC(C)C)C(=O)N[C@@H](CC(C)C)C(=O)N[C@@H](CCCNC(=N)N)C(=O)N[C@@H](CC(C)C)C(=O)N[C@@H](Cc1ccccc1)C(N)=O)C(C)C)[C@@H](C)CC [LCAPL9] (H-GFIKIVRKLLRLF-NH2),1.016,0.625,1,1.031,2,1.25,–,–
CC(C)C[C@H](NC(=O)[C@H](Cc1ccccc1)NC(=O)[C@H](CCCCN)NC(=O)[C@@H](N)CCCCN)C(=O)NCC(=O)N[C@@H](CCCCN)C(=O)N[C@@H](Cc1c[nH]c2ccccc12)C(=O)N[C@@H](CCCCN)C(=O)N[C@@H](CC(C)C)C(=O)N[C@@H](CCCNC(=N)N)C(=O)N[C@@H](Cc1ccccc1)C(=O)NCC(=O)N[C@@H](Cc1c[nH]c2ccccc12)C(N)=O [LCAPL15] (H-KKFLGKWKLRFGW-NH2),0.75,0.563,1.031,0.75,0.75,0.563,–,–
CC[C@H](C)[C@H](N)C(=O)N[C@H](C(=O)N[C@@H](CCCCN)C(=O)N[C@@H](CCCNC(=N)N)C(=O)N[C@H](C(=O)N[C@@H](CC(C)C)C(=O)N[C@H](C(=O)N[C@@H](CCC(N)=O)C(=O)N[C@@H](CC(C)C)C(=O)N[C@@H](CCCCN)C(=O)N[C@@H](CCCCN)C(=O)N[C@@H](CC(C)C)C(=O)N[C@@H](CC(C)C)C(N)=O)[C@@H](C)CC)[C@@H](C)CC)[C@@H](C)CC [LCAPL10] (H-IIKRILIQLKKLL-NH2),1.016,0.75,1.125,0.5,1.031,0.531,–,–
CC[C@@H](C)[C@@H](NC(=O)[C@@H](Cc1c[nH]c2ccccc12)NC(=O)[C@H](N)CCCNC(=N)N)C(=O)N[C@H](CCCNC(=N)N)C(=O)N[C@H](Cc1c[nH]c2ccccc12)C(=O)N[C@@H](C(=O)N[C@H](Cc1c[nH]c2ccccc12)C(=O)N[C@H](CCCNC(=N)N)C(=O)N[C@H](CCCCN)C(=O)N[C@H](CCCCN)C(=O)N[C@H](CC(C)C)C(=O)N[C@H](CCCNC(=N)N)C(N)=O)C(C)C [24D] (H-[dR][dW][dI][dR][dW][dV][dW][dR][dK][dK][dL][dR]-NH2),1.016,0.625,1.015,1,1,1.031,–,–
"CC1(C)S[C@@H]2[C@H](NC(=O)[C@H](N)c3ccccc3)C(=O)N2[C@H]1C(=O)O [Ampicillin, ampicillin sodium salt]",–,–,–,–,–,–,> 100 µg/mL,> 100 µg/mL
